Assay [1] addresses T1, RpfC (full-length, in liposomes) (Xanthomonas campestris, UniProt P0C0F7). In words: […] autophosphorylation assay, RpfC liposomes. It counts as biochemical. The following applies: activation of autokinase; 100 µM ATP, pH 7.8, 5 mM MgCl2, 28 °C.
Assay [2] deals with T1, RpfC (full-length, in liposomes). Kind of assay: label-free microscale thermophoresis, RpfC liposomes. It counts as binding. To be noted: 50 mM Tris-HCl pH 7.8, 150 mM NaCl, 10 mM MgCl2, 0.1% Pluronic F-127. A general note: Microscale thermophoresis detects binding through changes in fluorescence in a small temperature gradient.

T1 sequence (P0C0F7 whole entry): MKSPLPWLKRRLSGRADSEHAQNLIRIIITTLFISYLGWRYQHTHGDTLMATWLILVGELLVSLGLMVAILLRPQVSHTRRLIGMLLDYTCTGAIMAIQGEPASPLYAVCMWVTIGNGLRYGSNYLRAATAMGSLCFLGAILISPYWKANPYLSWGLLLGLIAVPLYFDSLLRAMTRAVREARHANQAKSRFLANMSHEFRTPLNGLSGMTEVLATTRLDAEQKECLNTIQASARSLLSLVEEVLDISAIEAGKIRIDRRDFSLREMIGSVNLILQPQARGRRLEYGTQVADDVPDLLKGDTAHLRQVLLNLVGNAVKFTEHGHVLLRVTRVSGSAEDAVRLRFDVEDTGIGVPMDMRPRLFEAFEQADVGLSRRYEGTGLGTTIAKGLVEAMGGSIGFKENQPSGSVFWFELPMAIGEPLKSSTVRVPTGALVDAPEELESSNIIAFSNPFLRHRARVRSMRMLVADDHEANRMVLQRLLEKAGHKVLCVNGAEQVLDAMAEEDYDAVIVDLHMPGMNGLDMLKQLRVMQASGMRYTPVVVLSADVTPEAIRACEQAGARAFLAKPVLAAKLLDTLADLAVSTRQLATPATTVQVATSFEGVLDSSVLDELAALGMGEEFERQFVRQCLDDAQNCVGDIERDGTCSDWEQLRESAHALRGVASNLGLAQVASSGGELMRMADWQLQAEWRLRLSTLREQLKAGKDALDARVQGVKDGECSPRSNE

`CCCCCCCCC/C=C\C(=O)O` [BDSF, cis-2-dodecenoic acid] displayed a 50% effective concentration (EC50) in assay [1] of approximately 0.06 µM.

As for `CCCCCCCCC/C=C/C(=O)O` [trans-BDSF], the midpoint of the response in assay [1], the EC50, lay at 1.11 µM. Besides, the equilibrium dissociation constant (Kd) in assay [2] came to 11.2 ± 0.95 µM.

What is called EC50 is the concentration that produces a half-maximal response. Low readings indicate a more potent agent, high ones a less potent agent. The Kd is the constant that tells how readily two partners part at equilibrium. Low values mean higher affinity, high ones lower affinity.

For the origin of these results see doi:10.1101/2022.01.03.474871v1 (biorxiv, 2022).
